Results on eleven compounds are retold here after publication PMC11284600, “Many human pharmaceuticals are weak inhibitors of the cytochrome P450 system in rainbow trout (Oncorhynchus mykiss) liver S9 fractions” (Frontiers in Toxicology, 2024).

Counter-ions that a name gives are not always drawn. Like-named read-outs stand apart in the source and are kept apart here. A value given as a limit tells only on which side of the number the result lay.

Details of data set [1]: method as in PubChem. Conditions: (e) empirical; ref PubChem; cited from earlier work.
For data set [2], the target named is T1, CYP3A-like BFCOD activity (Oncorhynchus mykiss, UniProt O42563).
T1 sequence (O42563 1-518): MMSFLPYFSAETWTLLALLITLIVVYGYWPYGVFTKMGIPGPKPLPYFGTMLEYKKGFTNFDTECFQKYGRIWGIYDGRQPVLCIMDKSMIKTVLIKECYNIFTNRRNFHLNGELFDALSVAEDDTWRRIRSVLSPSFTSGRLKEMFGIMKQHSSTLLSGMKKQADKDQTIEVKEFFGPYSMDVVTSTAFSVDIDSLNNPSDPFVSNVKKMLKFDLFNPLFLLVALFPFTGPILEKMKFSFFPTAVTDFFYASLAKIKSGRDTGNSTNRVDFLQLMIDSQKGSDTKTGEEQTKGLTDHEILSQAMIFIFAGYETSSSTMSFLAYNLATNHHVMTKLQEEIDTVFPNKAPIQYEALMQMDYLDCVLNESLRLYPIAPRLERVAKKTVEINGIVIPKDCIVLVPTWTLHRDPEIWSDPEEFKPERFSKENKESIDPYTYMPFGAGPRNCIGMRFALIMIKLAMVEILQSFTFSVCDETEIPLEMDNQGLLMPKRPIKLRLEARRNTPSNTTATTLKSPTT
Briefly: BFCOD inhibition in RT-S9 (IC50 shift assay). Conditions: both, Christophersen, Bornhoeved, rainbow trout (Oncorhynchus mykiss). As to the method:
(§1) Commercially available rainbow trout (O. mykiss) liver S9 fractions were used as the enzyme source for the in vitro P450 inhibition assays (RTL-S9, total protein concentration 20 mg/mL, Primacyt Cell Culture Technology GmbH).
(§2) The inhibitory impacts of the test substances toward the rainbow trout liver P450 system in vitro were assessed based on EROD and BFCOD as the marker reactions for CYP1A- and CYP3A-like isoenzyme activities, respectively. […] In this study, the EROD (CYP1A) and BFCOD (CYP3A) activities were determined using 0.5 mg/mL RT-S9 (total protein) concentration and 1 or 2 mM NADPH, respectively. […] All incubations were performed in duplicate in a total volume of 100 µL of potassium phosphate buffer (0.1 M, pH 7.8), at 11°C ± 1°C on a thermostated orbital shaker (LLG Labware). The reactions were terminated by the addition of 37.5 μL of the quenching solution (0.5 M Trizma base/acetonitrile 20:80, v/v). […] The quantitation of the metabolites (resorufin or HFC) was based on linear regression of the respective standards prepared in the potassium phosphate buffer. Negative control incubations were performed separately without the marker substrate, without cofactors, and without RT-S9 to ensure that the detected fluorescence signals arise from the metabolic conversion of the marker substrates (ER or BFC) into their respective metabolites (resorufin or HFC, respectively).
(§3) In this study, the preincubation was performed using three different protocols A-C (Table 2). In the first protocol, the test substance (each separately at six different concentrations between 0.01 and 500 µM) and RT-S9 were preincubated without any cofactors, and the marker reaction was initiated by the addition of the marker substrate (ER or BFC) and NADPH (Protocol A). This enabled the determination of the inhibitory impact of the parent form of the test substance on the respective marker activity. In the second protocol, the test substance and RT-S9 were preincubated together with NADPH, and the marker reaction was initiated by the addition of the marker substrate (Protocol B). In this manner, the test substance could undergo P450 metabolism already during the preincubation step, which may reduce its concentration and thus the inhibitory impact toward the marker reactions, or result in the formation of reactive or inhibitory metabolites, which typically increases the inhibitory impact compared with the parent form (Protocol A). […] In this manner, the test substance could undergo both P450 and phase II metabolism already during the preincubation step, which may likewise reduce its concentration and inhibitory impact toward the marker reactions, and even help eliminate the possible reactive metabolites via glutathione conjugation. […] Additionally, positive control incubations of the marker substrates (ER or BFC) without the test substance (zero inhibitor concentration) were included in each series to determine the basal EROD or BFCOD activity in RT-S9.
(§4) The residual solvent concentration was kept constant at all inhibitor concentrations, including zero, to eliminate its impact on the IC50 concentrations derived from the empirical data. The IC50 shifts for Protocols B and C were calculated according to Eq. 2: IC50 shift=IC50,Protocol A/IC50,Protocol B or Protocol C (2)
(§5) In this manner, the impact of the test substance’s own metabolism (during the preincubation step) on the inhibitory impact could be evaluated.

For another data set, the system named is Human CYP3A. The note with it: cited from earlier work; for Human CYP3A interactions: substrate status: ref Drugbank unless otherwise stated (Dragovic et al., 2013; Niwa et al., 2005).
The subject of data set [3] is CYP1A-like ethoxyresorufin O-deethylase (EROD) activity. Briefly: in vitro. Conditions: both, Christophersen, Bornhoeved, rainbow trout (Oncorhynchus mykiss); for inhibition at 10 min: pH 7.8. The procedure: as §1, §2, §3, §4, §5
Data set [4] is described as follows: Unbound fraction in RT-S9 by rapid equilibrium dialysis. The format is in vitro ADME, rainbow trout (Oncorhynchus mykiss). The note with it: 10 µM test substance, 1 mg/mL RT-S9, pH 7.8, 11°C, n = 3, read-out: Unbound fraction (fU,RT-S9). As to the method: The unbound (free) fractions of the test substances in RT-S9 (fU,RT-S9) were determined using rapid equilibrium dialysis assay (RED, Thermo Fisher Scientific), which exploits two-compartment inserts separated by a dialysis membrane with a molecular weight cut-off of 8,000 Da. In the RED assay, each test pharmaceutical (10 μM) was incubated in triplicate with RT-S9 (1 mg/mL) in 50 mM potassium phosphate buffer (pH 7.8) in a total volume of 300 µL on one side of the membrane (protein-containing chamber), and 350 μL of the plain phosphate buffer on the other side (protein-free chamber). To reach equilibrium, the samples were incubated on an orbital shaker (C25KC Incubator shaker, New Brunswick Scientific, 120 rpm) at 11°C for 4 h. Next, 50 µL aliquots were collected from both chambers separately and diluted by adding 50 µL of the plain buffer (to the protein-containing sample) or 50 μL of 1 mg/mL RT-S9 in the buffer (to the protein-free sample). Finally, the RT-S9 protein was precipitated by the addition of acetonitrile (+200 μL) to both samples separately, followed by incubation on ice for 30 min and centrifugation (16100 g, 15 min). The test substance concentrations in the supernatants of both samples were determined using liquid chromatography. The instrumentation and the analytical methods used for chromatographic analyses are described in detail in the Supplementary Table S2. The unbound fractions of the test substances in RT-S9 (fU,RT-S9) were calculated according to Eq. 3: fU,RT−S9=1− PC−PF/PC (3) where [PC] and [PF] are the test substance concentrations in the samples collected from protein-containing and protein-free chambers, respectively. To account for the test substance’s binding to the RT-S9, the nominal IC50 values were corrected for unbound fraction (fU,RT-S9) according to Eq. 4: Unbound IC50=Nominal IC50×fU,RT−S9 (4)
(Equilibrium dialysis compares concentrations on both sides of a semipermeable membrane.)

Data set [5] has as its target T2, CYP3A-like 7-benzyloxy-4-trifluoromethylcoumarin O-debenzylase (BFCOD) activity in rainbow trout liver S9 fractions (Oncorhynchus mykiss, UniProt O42563).
T2 sequence (O42563 1-518): T1 sequence (O42563 1-518)
Briefly: BFCOD inhibition in RT-S9 (IC50 shift assay). Conditions: within the tested concentration range. As to the method: as §1, §2, §3, §4, §5

For data set [6], the system named is CYP1A-like ethoxyresorufin O-deethylase (EROD) activity in rainbow trout liver S9 fractions. Briefly: EROD inhibition in RT-S9 (IC50 shift assay). As to the method: as §1, §2, §3, §4, §5
The subject of another data set is CYP1A-like EROD activity. Put plainly: in vitro. Conditions: both, Christophersen, Bornhoeved, rainbow trout (Oncorhynchus mykiss). As to the method: as §1, §2, §3, §4, §5
The mark [7] stands for this setting: s9, pH 7.8, BFCOD inhibition in RT-S9, Nominal IC50, Protocol B: 30 min preincubation w/NADPH (2 mM).
[8] abbreviates: s9, pH 7.8, BFCOD inhibition in RT-S9, Nominal IC50, Protocol C: 30 min preincubation w/all cofactors (NADPH, UDPGA, PAPS, glutathione).
Where [9] appears, read: pH 7.8, EROD inhibition in RT-S9, Nominal IC50.
The mark [10] stands for this setting: pH 7.8, EROD inhibition in RT-S9, Unbound IC50.
Setting [11] is: rainbow trout liver S9 fractions (RT-S9).

As to `CC(C)c1c(C(=O)Nc2ccccc2)c(-c2ccccc2)c(-c2ccc(F)cc2)n1CC[C@@H](O)C[C@@H](O)CC(=O)O` [Atorvastatin, atorvastatin calcium trihydrate], in data set [1], the LogKOW is reported as 6.36 (e).
For orientation: IC50 means the concentration at which inhibition is half-maximal. As usually defined, the inhibition is the relative decrease from the control value, in per cent. One may read the fraction unbound as free concentration divided by total concentration. With `CN1CCCC(n2nc(Cc3ccc(Cl)cc3)c3ccccc3c2=O)CC1` (stereo not shown) [Azelastine, azelastine hydrochloride], the IC50 at 20 min was over 100 µM in data set [2] (s9, pH 7.8); over 100 µM in data set [2] (setting [7]); over 100 µM in data set [2] (setting [8]). Further, the inhibition at 20 min in data set [2] (s9, pH 7.8) is at most 50%. Besides, the “Human CYP3A interactions: inhibitor status” value in the data set with Human CYP3A (ref Drugbank unless otherwise stated (Cohen et al., 2000; Guo et al., 1997; Niwa et al., 2005)) is recorded as “Inhibitor (m)”. The inhibition at 10 min in data set [3] is over 50%. Moreover, the values for the IC50 at 10 min in data set [3] (setting [9]) and in data set [3] (setting [10]) were 28 ± 2 µM and 3.8 ± 0.5 µM, respectively. For the same compound, the fraction unbound at 4 h, 10 µM in data set [4] (setting [11]) came to 0.14 ± 0.01.
Regarding `CCNC(=O)CCC/C=C\C[C@@H]1[C@@H](/C=C/[C@@H](O)CCc2ccccc2)[C@H](O)C[C@@H]1O` [Bimatoprost, bimatoprost], the “BFCOD inhibition in RT-S9 (in words)” value in data set [5] was “did not significantly inhibit”. Also, the “Human CYP3A interactions: substrate status” value with Human CYP3A was “Substrate”. Further, the LogKOW in data set [1] is recorded as 3.2 (e).
For the compound `Cc1ncsc1CCCl` [Clomethiazole, clomethiazole hydrochloride], in data set [5], the “BFCOD inhibition in RT-S9 (in words)” value is “did not significantly inhibit”. For the same compound, in the data set with Human CYP3A, the “Human CYP3A interactions: substrate status” value is given as “Substrate”. Further, the “EROD inhibition in RT-S9 (in words)” value in data set [6] (within the tested concentration range) is on record as “did not significantly inhibit”; in data set [6] (within the tested concentration range, listed as Chlomethiazole) it was “no significant EROD inhibition”. Also, the fraction unbound at 4 h, 10 µM in data set [4] (rainbow trout (Oncorhynchus mykiss)) is over 0.9.
Take `Clc1ccc2c(c1)CCc1cccnc1C2=C1CCNCC1` [Desloratadine, desloratadine]: the unbound share (fraction unbound) at 4 h, 10 µM in data set [4] (setting [11]) was found to be 0.15 ± 0.03.
For the compound `CCN(CC)C(=S)SSC(=S)N(CC)CC` [Disulfiram, disulfiram], the fraction unbound at 4 h, 10 µM in data set [4] (rainbow trout (Oncorhynchus mykiss), rainbow trout liver S9 fractions (RT-S9)) is over 0.9; in data set [4] (setting [11]) it was 0.91 ± 0.42. Also, the LogKOW in data set [1] is reported as 3.88 (e).
Turning to `COc1ccc2nc([S@@+]([O-])Cc3ncc(C)c(OC)c3C)[nH]c2c1` [Esomeprazole, esomeprazole magnesium hydrate], the IC50 at 20 min in data set [2] (s9, pH 7.8) was over 100 µM; in data set [2] (setting [7]) it was over 100 µM; in data set [2] (setting [8]), over 100 µM. In addition, the inhibition at 20 min in data set [2] (s9, pH 7.8) was at most 50%. The IC50 shift at 20 min in data set [2] (s9, pH 7.8, BFCOD inhibition in RT-S9, IC50 shift (A/B), IC50 Protocol A / IC50 Protocol B, TDI if ≥1.5) is 1.2 ± 0.2; in data set [2] (s9, pH 7.8, BFCOD inhibition in RT-S9, IC50 shift (A/C), IC50 Protocol A / IC50 Protocol C), 0.8. The “Human CYP3A interactions: substrate status” value with Human CYP3A was “Substrate”. In data set [3], this compound gave an inhibition at 10 min of over 50%. In addition, inhibition in data set [3] (setting [10]) was half-maximal at 3 ± 0.8 µM (IC50 at 10 min). In addition, the IC50 shift at 10 min with CYP1A-like EROD activity (s9, pH 7.8, EROD inhibition in RT-S9, IC50 shift (A/B)) is 2.3 ± 0.7; with CYP1A-like EROD activity (s9, pH 7.8, EROD inhibition in RT-S9, IC50 shift (A/C)) it was 1.7. The fraction unbound at 4 h, 10 µM in data set [4] (setting [11]) was determined as 0.36 ± 0.08.
As to `Cc1ccccc1C(OCCN(C)C)c1ccccc1` (stereo not shown) [Orphenadrine, orphenadrine citrate], in data set [4] (setting [11]), the fraction unbound at 4 h, 10 µM was found to be 0.27 ± 0.05. In data set [1], the LogKOW is recorded as 3.77 (e).
For the compound `COc1cc2nc(N3CCN(C(=O)c4ccco4)CC3)nc(N)c2cc1OC` [Prazosin, prazosin hydrochloride], the IC50 at 20 min in data set [2] (s9, pH 7.8) is over 25 µM. The “EROD inhibition in RT-S9 (in words)” value in data set [6] is reported as “inhibited selectively only EROD activity”. The compound further had an inhibition at 10 min in data set [3] of over 50%. The same compound had an IC50 at 10 min in data set [3] (setting [9]) of 21 ± 2 µM.
As for `OCCOCCN1CCN(C2=Nc3ccccc3Sc3ccccc32)CC1` [Quetiapine, quetiapine hemihumarate], the fraction unbound at 4 h, 10 µM in data set [4] (setting [11]) came to 0.24 ± 0.06. The LogKOW in data set [1] is given as 2.81 (e).
`CCN1CCCC1CNC(=O)c1cc(S(N)(=O)=O)ccc1OC` (stereo not shown) [Sulpiride, sulpiride]: in data set [5], the “BFCOD inhibition in RT-S9 (in words)” value is “did not significantly inhibit”.
